Among the targets are Cytochrome P450 2D6 (Homo sapiens, UniProt P10635); Cytochrome P450 2C9 (Homo sapiens, UniProt P11712); Cytochrome P450 3A4 (Homo sapiens, UniProt P08684).
Assay [1] deals with FAD-linked sulfhydryl oxidase ALR (Homo sapiens, UniProt P55789). As to the kind of experiment: ALR-catalysed DTT oxidation blockers – biochemical, H2O2 detection, luminescence, cherry-pick, dose response (AID 493248).
The next assay has as its system H9c2. Nature of the assay: cells. The assay is classed as functional, cell-based. The note with it: Rattus norvegicus, H9c2, Myocardium.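 Note: confirmatory concentration-response retest of ultra-high-throughput screening hits for modulation of myocardial damage; cell death induced by hydrogen peroxide oxidative stress; compound pretreatment for 60 min then peroxide exposure for 2 h; potency is for protecting the cells against peroxide damage rather than for killing them.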
The test system of another assay is Vero. Nature of the assay: cells. The assay is classed as functional. The note with it: Chlorocebus sabaeus.
The target in assay [2] is T1, Short transient receptor potential channel 4 (Mus musculus, UniProt Q9QUQ5).
T1 sequence (Q9QUQ5 whole entry): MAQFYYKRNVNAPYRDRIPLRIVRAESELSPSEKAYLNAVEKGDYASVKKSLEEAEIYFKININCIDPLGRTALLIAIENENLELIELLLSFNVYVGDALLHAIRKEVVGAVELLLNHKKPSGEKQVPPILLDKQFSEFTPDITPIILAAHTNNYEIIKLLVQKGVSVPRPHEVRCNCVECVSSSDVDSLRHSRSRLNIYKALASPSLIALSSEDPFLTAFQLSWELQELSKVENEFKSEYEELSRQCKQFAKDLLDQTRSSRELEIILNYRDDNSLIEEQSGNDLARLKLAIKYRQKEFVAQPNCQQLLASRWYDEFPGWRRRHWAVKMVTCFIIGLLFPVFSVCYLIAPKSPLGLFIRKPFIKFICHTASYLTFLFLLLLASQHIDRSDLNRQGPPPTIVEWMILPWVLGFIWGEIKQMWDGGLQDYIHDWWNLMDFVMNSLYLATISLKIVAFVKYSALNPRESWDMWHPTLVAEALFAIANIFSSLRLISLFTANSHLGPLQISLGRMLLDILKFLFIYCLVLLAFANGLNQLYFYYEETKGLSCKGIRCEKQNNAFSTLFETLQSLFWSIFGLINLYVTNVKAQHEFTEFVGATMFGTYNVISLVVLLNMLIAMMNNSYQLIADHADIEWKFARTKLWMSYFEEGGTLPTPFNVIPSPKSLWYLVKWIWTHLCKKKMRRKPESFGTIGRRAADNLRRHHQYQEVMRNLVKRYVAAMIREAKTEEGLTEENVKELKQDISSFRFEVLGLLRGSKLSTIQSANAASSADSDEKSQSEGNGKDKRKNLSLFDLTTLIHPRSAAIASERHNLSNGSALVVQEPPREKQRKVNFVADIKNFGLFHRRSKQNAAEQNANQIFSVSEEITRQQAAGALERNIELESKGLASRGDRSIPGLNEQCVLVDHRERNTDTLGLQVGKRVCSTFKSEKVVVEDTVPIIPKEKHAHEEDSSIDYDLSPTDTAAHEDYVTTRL
As to the kind of experiment: calcium entry via TRPC4 opening agents – cell-based, HEK293 TRPC4/mu-opioid, Fluo-4 calcium, dose response (AID 434937). In kind it is functional.

The nature of assay [3]: NIH3T3 cell viability loss – ATP luminescence, mouse fibroblasts, counter-screen, dose response (AID 2010).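 Note: cells exposed to compound for about 90 hours before reading.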 The assay is classed as functional, cell-based. (A counterscreen serves to expose hits that act by an unwanted route or on another target.)
Assay [4] can be described thus: Trypanosoma cruzi growth suppression in host cells – NIH3T3 host cells, beta-gal luminescence, confirmation (AID 2044).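 Note: intracellular parasites grown in NIH/3T3 mouse fibroblasts as host cells; luminescent beta-galactosidase reporter signal from transgenic T. cruzi replicating inside host cells; inhibitors lower the luminescence signal.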 The assay is classed as functional, cell-based.
In a further assay the target is T2, Cytochrome P450 1A2 (Homo sapiens, UniProt P05177).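 Note: PubChem cytochrome P450 panel assay, CYP1A2 panel member.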
T2 sequence (P05177 whole entry): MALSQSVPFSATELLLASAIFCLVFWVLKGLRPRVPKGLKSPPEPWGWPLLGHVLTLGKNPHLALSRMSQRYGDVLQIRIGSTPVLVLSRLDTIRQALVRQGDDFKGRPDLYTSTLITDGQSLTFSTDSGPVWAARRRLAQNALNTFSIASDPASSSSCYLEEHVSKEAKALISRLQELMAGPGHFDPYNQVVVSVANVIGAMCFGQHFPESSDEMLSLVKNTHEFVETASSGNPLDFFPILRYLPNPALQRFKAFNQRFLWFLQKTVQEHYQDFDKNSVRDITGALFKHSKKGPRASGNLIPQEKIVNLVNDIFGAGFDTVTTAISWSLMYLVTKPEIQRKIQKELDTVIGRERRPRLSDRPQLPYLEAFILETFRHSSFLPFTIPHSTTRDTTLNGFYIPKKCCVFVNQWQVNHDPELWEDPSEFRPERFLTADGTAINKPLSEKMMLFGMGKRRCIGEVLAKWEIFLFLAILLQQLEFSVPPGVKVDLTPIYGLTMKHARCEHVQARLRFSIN

For assay [5], the target named is Glucose-6-phosphate 1-dehydrogenase (Homo sapiens, UniProt P11413). As to the kind of experiment: inhibition of Homo sapiens G6PD, dose series – biochemical, fluorescence, selectivity assay for P. falciparum G6PD inhibitor project, dose response (AID 504792). The assay is classed as functional.
A short description of assay [6]: Luminescence Cell-Based Dose Response HTS to Identify Inhibitors of 5'UTR Stem-Loop Driven Prion Protein mRNA Translation in H4 Neuroglioblastoma Cells. [Related pubchem assays: 1827 (Project Summary), 1813 (Primary HTS)]. In kind it is functional.
Assay [7] is described as follows: luciferase reporter signal suppression in cells – H4 neuroglioma cells, luminescence, dose response (AID 1990). In kind it is functional, cell-based. In general terms: In a reporter assay the amount or activity of a reporter protein is the signal.
The subject of another assay is Streptococcus. Nature of the assay: GAS UMAA2166 growth inhibition – luminescence, BacTiterGlo, counter-screen for streptokinase expression inhibitor project, dose response (AID 1915).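 Note: potency for reduction of bacterial viability or growth.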 In kind it is functional, organism-based.
Assay [8] concerns Streptococcus sp. 'group A'. As to the kind of experiment: Streptococcus pyogenes SK(-)GAS viability under kanamycin – luminescence, BacTiterGlo, confirmation, counter-screen for streptokinase expression inhibitor project, dose response (AID 1900). In kind it is functional, organism-based.
A short description of assay [9]: alpha-synuclein stem-loop luciferase translation blockers – H4 neuroglioma cells, luminescence, confirmation (AID 1988). In kind it is functional, cell-based.
Assay [10] can be described thus: fluconazole-exposed Candida albicans growth modulators – fluorescence, retest, confirmation (AID 2467). In kind it is functional, cell-based.
Assay [11] in a line: NIH-3T3 fibroblast cytotoxicity, dose response, cytotoxicity control, cell-based, fluorescence, Alamar Blue, secondary assay (AID 2327).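 Note: NIH-3T3 mouse fibroblasts cultured with fluconazole at 8 µg/mL.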 In kind it is functional. (Alamar Blue is a resazurin reagent that responds to reducing activity.)
The target of another assay is Genome polyprotein (dengue virus type 2, UniProt P29990). Nature of the assay: flavivirus cap methylation enzyme inhibition – biochemical, confirmation dose response, primary screen (AID 588689). In kind it is functional.
Assay [12] in a line: Luminescence Cell-Based Dose Retest to Confirm Inhibitors of Cancer Stem Cells. [Related pubchem assays (depositor defined):AID2717, AID2721]. The assay is classed as functional. The note with it: Homo sapiens.

Each structure is given as a SMILES string. Calls of active or inactive are those of the source.

As usually defined, the AC50 is the concentration at which the activity in the assay is half-maximal. As for `Cc1cc(C(=O)NNC(=O)CCN2CCN(c3ccccc3)CC2)c2ccccc2n1`, the concentration at half-maximal activity (AC50) in [1] was 5.94 µM (active).

`C=CCN1CCc2cccc3c2[C@@H]1Cc1ccc(O)c(O)c1-3`: the concentration at half-maximal activity (AC50) on Cytochrome P450 2D6, at Cytochrome P450 2C9 and on Cytochrome P450 3A4 was 31.6 µM (inconclusive) throughout.

By IC50 is commonly meant the concentration that inhibits the measured activity by half. For `CCN(CC(=O)Nc1cc(Cl)ccc1C)C(=O)C1CCN(c2ncnc3sc(C)c(C)c23)CC1`, the 50% inhibitory concentration (IC50) in the assay on H9c2 was 12.7 µM (active).

In general, CC50 refers to the concentration that lowers cell viability or growth by half. For `COc1ccc(-n2cc(CNCCCn3ccnc3)c(-c3cccc(F)c3)n2)cc1`, in the assay on Vero, the half-maximal cytotoxic concentration (CC50) was > 25 µM (active).

A word on the EC50: it is the concentration at which the effect is half-maximal. As for `CC(=O)n1cc([C@H]2C=C(C(=O)NCc3ccccc3)O[C@@H](OCc3ccc(CO)cc3)C2)c2ccccc21`, the concentration giving a half-maximal response (EC50) in [2] was 8.41 µM (active).

As for `CCN(CC)CCCOc1ccc(Cl)c(Cl)c1`, the EC50 in assay [2] was 2.37 µM (active).

As to `COc1cc(/C=N/N2CCCCC2)cc([N+](=O)[O-])c1O`, in assay [1], the AC50 was 2.71 µM (active).

As for `CC(NC(=O)CCSc1nc(-c2ccco2)cc(C(F)(F)F)n1)c1ccccc1` (stereo not given), the half-maximal activity concentration (AC50) on Cytochrome P450 2D6 and at Cytochrome P450 2C9 was 15.8 µM (inconclusive) each time.

As for `O=C(NCC(=O)N1CCN(c2ccccc2)CC1)c1cccs1`, the AC50 in assay [1] was 21.4 µM (active).

Regarding `CCc1ccc(C(=O)c2cnc3ccc(OC)cc3c2N2CCN(CC)CC2)cc1`, the EC50 in [2] is 5.96 µM (active).

Take `CC(C)c1ccc(NC2CCCN(C(=O)c3cnc4ccccn4c3=O)C2)cc1` (stereo not given): the AC50 in assay [1] was 8.31 µM (active).

In the case of `c1coc(-c2nnc3sc(-c4cccs4)nn23)c1`, in the assay with H9c2, the 50% inhibitory concentration (IC50) is 15.6 µM (active).

Take `Cc1cccc(C(=O)N2CCc3cc(-c4csc(NC(=O)CN5CCCC5)n4)ccc32)c1`: the CC50 in the assay with Vero was > 25 µM (active).

For the molecule `CC(C)(C)NS(=O)(=O)c1ccc(NC(=O)c2cc(-c3ccccc3)nc3ccccc23)cc1`, the concentration for a half-maximal effect (EC50) in assay [3] was > 60 µM (not active); in assay [4], 2.03 µM (active). Also, the results for the AC50 at Cytochrome P450 2D6 and on Cytochrome P450 1A2 were 3.98 µM (inconclusive) and 3.16 µM (inconclusive), respectively.

Take `CCOC(=O)c1ccc(/[N+]([O-])=C/c2ccccc2)cc1`: the IC50 in assay [5] is > 80 µM (inactive).

For `Cc1ncc(CO)c2cc(C(=O)Nc3ccccc3Cl)/c(=N/c3cccc(C(N)=O)c3)oc12`, the half-inhibitory concentration (IC50) with H9c2 was 12.4 µM (active).

As to `Cc1cccc(C)c1OCCn1nc(C(=O)O)c2ccccc2c1=O`, the IC50 with H9c2 is > 79 µM (inactive).

On to `CCOc1ccc(/C=C2/Sc3ccc(C(=O)N4CCN(C(=O)c5ccco5)CC4)cc3N(C)C2=O)cc1OC`, for which the EC50 in assay [6] was > 120 µM (not active); in assay [7], 105 µM (active); in the assay on Streptococcus it was 5.98 µM (active); in assay [8] it was 2.63 µM (active); in assay [9], 97.7 µM (active).

Turning to `CC(C)c1nnc(NC(=O)c2cccc(-n3cnnn3)c2)s1`, the IC50 in assay [5] was 50 µM (inactive).

Turning to `COc1ccccc1C(=O)NNC(=S)NC(=O)c1cc(OC)c(OC)c(OC)c1`, the concentration giving a half-maximal response (EC50) was 6.32 µM (active) in assay [3]; 2.5 µM (active) in the assay on Streptococcus; 0.158 µM (active) in assay [4]; 1.25 µM (active) in assay [8]; 2.49 µM (active) in assay [10]; > 150 µM (inactive) in [11]. In addition, in the assay with Vero, the 50% cytotoxic concentration (CC50) was 13.6 µM (active).

Take `O=C(N/N=C\c1ccccn1)c1cccc(C(=O)N/N=C\c2ccccn2)n1`: the IC50 in the assay with H9c2 is > 79 µM (inactive).

As to `CCn1c(S)nnc1-c1ccccc1O`, the AC50 in [1] is 9.17 µM (active).

For `O=[N+]([O-])c1ccc(N/N=C/c2cn(Cc3ccc(F)cc3)c3ccccc23)nc1`, the EC50 in [6] is 15.2 µM (active); in assay [7], 25.8 µM (active); in assay [9], 12 µM (active).

For `Cc1ccc2nc(O)c(CN(CCCN3CCOCC3)C(=O)Nc3ccc(Cl)cc3)cc2c1`, the IC50 with H9c2 was > 79 µM (inactive).

As to `Oc1ccc(-c2onc3ccc(Cl)cc23)cc1`, in assay [1], the AC50 was 6.97 µM (active).

`COc1ccc(-c2csc(NC(=O)c3cccc(N4C(=O)CCC4=O)c3)n2)cc1OC`: the IC50 in the assay on H9c2 is > 79 µM (inactive).

With `CCOC(=O)C1=C(C)N=C(C)C(=C(O)OCC)C1C(=O)OCC(=O)NC(C)C` (stereo not given), the IC50 in the assay on H9c2 was > 79 µM (inactive).

On to `Cc1c(/C=C/C(=O)c2ccc(Cl)s2)cnn1C`, for which, in [5], the IC50 is > 80 µM (inactive).

Take `CCOc1ccc(N2C(=O)NC(=O)/C(=C\c3ccccc3[N+](=O)[O-])C2=O)cc1`: at Genome polyprotein, the IC50 was 30.5 µM (active).

In the case of `COc1ccc(C(=O)Nc2ccc(OCC(F)(F)C(F)F)c(C(F)(F)F)c2)cc1OC`, the half-maximal activity concentration (AC50) on Cytochrome P450 2D6 was 22.4 µM (inconclusive); in assay [12], 3.78 µM (active).

`COc1cccc(/C=N/NC(=O)CSc2cccc3cccnc23)c1`: the IC50 in assay [5] is > 80 µM (inactive).

`CN1CCc2nc3ccccc3c(C(=O)OCC(=O)N(CCC#N)c3ccccc3)c2C1`: in the assay with H9c2, the IC50 is > 79 µM (inactive).

Regarding `COc1cccc(C(=O)N(C)CC2CCN(CCc3cccc(C(F)(F)F)c3)CC2)c1`, the EC50 in [2] is 0.596 µM (active).

Take `O=c1oc2cc(Br)ccc2n1CSC1=NCCS1`: the AC50 in assay [1] was 0.033 µM (active).

Regarding `CC1CC(C)CN(CCCNC(=O)c2ccc3c(c2)N(Cc2ccccc2)C(=O)c2ccccc2[S+]3[O-])C1` (stereo not given), in assay [2], the concentration giving a half-maximal response (EC50) was 0.841 µM (active).

Turning to `Sc1nnc(/C=C/c2ccccc2)o1`, the AC50 in assay [1] is 29.9 µM (active).

For the origin of these results see ChEMBL document CHEMBL1201862, “PubChem BioAssay data set” (2004).
